Assays:
[1] = test system: human PBMC; test: IL-6 secretion by human PBMC (ELISA), with or without chloroquine; format: cell-based; settings: 10 μg/ml chloroquine, 24 h, IL-6, FIG. 9
Procedure: Vasilakos J P et al. (2000) Cell Immunol 204:64-74. Human PBMC (n=3) were cultured for 24 h with varying concentrations of R-848 ([…]), varying concentrations of CpG ODN 2006 (0.8-6.0 μg/ml), SEB (50 ng/ml), or media alone. […] IL-6 in the supernatants was measured by ELISA. […] TLR9 is believed to have intracellular expression only.

[2] = biological target: T1, hTLR9 (Homo sapiens, UniProt Q9NR96, H530R/Q688R); test: Reconstitution of hTLR9 signaling in 293 fibroblasts (NF-kappa B luciferase, IL-8 ELISA); format: cell-based; settings: 2006 2 μM, LPS 100 ng/ml, FIG. 10
T1 construct: 293-TLR9-Luc cells contain a genomic copy of the hTLR9 open reading frame and the NF-kappa B-luciferase cassette; expressed in transfected cells; host or cells: 293-TLR9-Luc (stably transfected human embryo kidney 293 cells)
T1 sequence (Q9NR96 26-1032 H530R/Q688R): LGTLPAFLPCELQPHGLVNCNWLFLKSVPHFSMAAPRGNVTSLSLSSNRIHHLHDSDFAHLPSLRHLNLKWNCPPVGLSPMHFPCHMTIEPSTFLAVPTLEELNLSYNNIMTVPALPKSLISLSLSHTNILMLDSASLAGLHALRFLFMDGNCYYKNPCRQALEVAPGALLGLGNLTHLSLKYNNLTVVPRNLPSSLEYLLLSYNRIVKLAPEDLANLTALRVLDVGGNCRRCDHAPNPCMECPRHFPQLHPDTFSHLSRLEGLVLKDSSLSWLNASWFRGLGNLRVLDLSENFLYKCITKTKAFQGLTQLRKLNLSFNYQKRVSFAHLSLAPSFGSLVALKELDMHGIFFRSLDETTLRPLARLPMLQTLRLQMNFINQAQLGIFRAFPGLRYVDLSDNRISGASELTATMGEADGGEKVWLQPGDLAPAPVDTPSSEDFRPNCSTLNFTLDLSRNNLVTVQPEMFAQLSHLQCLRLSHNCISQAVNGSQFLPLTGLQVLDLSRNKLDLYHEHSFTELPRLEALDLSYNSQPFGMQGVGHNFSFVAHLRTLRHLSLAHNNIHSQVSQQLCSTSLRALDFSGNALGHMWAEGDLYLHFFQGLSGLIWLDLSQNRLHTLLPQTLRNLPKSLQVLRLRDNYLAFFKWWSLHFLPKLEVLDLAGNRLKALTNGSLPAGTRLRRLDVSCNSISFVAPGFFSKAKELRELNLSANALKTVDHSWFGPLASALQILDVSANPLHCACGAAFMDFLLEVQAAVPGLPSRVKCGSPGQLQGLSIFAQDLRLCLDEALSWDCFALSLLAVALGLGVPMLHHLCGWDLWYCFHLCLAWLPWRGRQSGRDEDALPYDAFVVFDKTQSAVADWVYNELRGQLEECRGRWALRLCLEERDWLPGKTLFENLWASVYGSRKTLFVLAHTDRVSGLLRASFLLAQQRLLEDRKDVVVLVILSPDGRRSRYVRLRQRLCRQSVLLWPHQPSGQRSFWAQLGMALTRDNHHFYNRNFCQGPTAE
Text: Methods for cloning murine and human TLR9 have been described in pending U.S. patent application Ser. No. 09/954,987, filed Sep. 17, 2001, and published PCT application PCT/US01/29229, the contents of which are incorporated by reference. Human TLR9 cDNA (SEQ ID NO:6, GenBank Accession No. AF245704) and murine TLR9 cDNA (SEQ ID NO:8, GenBank Accession No. AF348140) in pT-Adv vector (from Clontech) were individually cloned into the expression vector pcDNA3.1 (−) from Invitrogen using the EcoRi site. Utilizing a “gain of function” assay it was possible to reconstitute human TLR9 (hTLR9) and murine TLR9 (mTLR9) signaling in CpG-DNA non-responsive human 293 fibroblasts (ATCC, CRL-1573). The expression vectors mentioned above were transfected into 293 fibroblast cells using the calcium phosphate method. […]
Since NF-kappa B activation is central to the IL-1/TLR signal transduction pathway (Medzhitov R et al. (1998) Mol Cell 2:253-258 (1998); Muzio M et al. (1998) J Exp Med 187:2097-101), cells were transfected with hTLR9 or co-transfected with hTLR9 and an NF-kappa B-driven luciferase reporter construct. […] After stimulus with CpG-ODN (2006, 2 μM, […], SEQ ID NO:1), GpC-ODN (2006-GC, 2 μM, […], SEQ ID NO:10), LPS (100 ng/ml) or media, NF-kappa B activation by luciferase readout (8 h, FIG. 10A) or IL-8 production by ELISA (48 h, FIG. 10B) were monitored. […]

response of cells expressing hTLR9 (NF-kappa B luciferase 8 h, IL-8 48 h) [2]: responded to CpG-DNA
Substance: CpG ODN 2006
inhibition of the stimulant's activity by chloroquine (in words) [1]: completely abolish

From patent US20060188913A1, “Methods and products for enhancing immune responses using imidazoquinoline compounds” (University of Iowa Research Foundation, priority 2001, published 2006)
